Measurements taken from ChEMBL document CHEMBL1139560, “Synthesis of linked berberine dimers and their remarkably enhanced DNA-binding affinities” (Bioorg Med Chem Lett, 2005).

Key:
Type in all cases: nucleic-acid assay
Nucleic Acid [1] = experiment: In vitro association constant for binding at d(AAGAATTCTT)2 done in 50 mM Tris-HCL in pH 6.35 at room temperature
Nucleic Acid [2] = experiment: In vitro relative affinity for binding to d(AAGAATTCTT)2
Nucleic Acid [3] = experiment: In vitro relative affinity for binding to d(TA AGAATTCTTA)2
Nucleic Acid [4] = experiment: In vitro association constant for binding at d(TA AGAATTCTTA)2 done in 50 mM Tris-HCL in pH 6.35 at room temperature

Ka (Nucleic Acid [1]) | RA (Nucleic Acid [2]) | RA (Nucleic Acid [3]) | Ka (Nucleic Acid [4]) | SMILES
12400 | 1 | 1 | 29300 | COc1ccc2cc3[n+](cc2c1OC)CCc1cc2c(cc1-3)OCO2
34200 | 2.8 | 8.5 | 248000 | COc1ccc2cc3[n+](cc2c1OCCCCCCOc1c(OC)ccc2cc4[n+](cc12)CCc1cc2c(cc1-4)OCO2)CCc1cc2c(cc1-3)OCO2
57700 | 4.7 | 11 | 321000 | COc1ccc2cc3[n+](cc2c1OCCCCCOc1c(OC)ccc2cc4[n+](cc12)CCc1cc2c(cc1-4)OCO2)CCc1cc2c(cc1-3)OCO2

SMILES | Ka (Nucleic Acid [1]) | RA (Nucleic Acid [2]) | RA (Nucleic Acid [3]) | Ka (Nucleic Acid [4])
COc1ccc2cc3[n+](cc2c1OCCCOc1c(OC)ccc2cc4[n+](cc12)CCc1cc2c(cc1-4)OCO2)CCc1cc2c(cc1-3)OCO2 | 246000 | 19.8 | 94.2 | 2.76e+06
COc1ccc2cc3[n+](cc2c1OCCCCOc1c(OC)ccc2cc4[n+](cc12)CCc1cc2c(cc1-4)OCO2)CCc1cc2c(cc1-3)OCO2 | 87800 | 7.1 | 11.9 | 349000
